Measured values published in patent US10051863B2, “Methods for apple scab control” (Valent U.S.A., Corporation, priority 2015, dated 2018).

What was measured:
[1] = test system: apple scab caused by Venturia inaequalis; assay: Example 1: bark spray on apple trees, apple leaf scab incidence, severity and % control; assay type: in vivo; parameters: Apple leaf scab severity: scale not given here; Apple Leaf scab incidence: unit not given here; conditions: for Apple Leaf scab incidence / Apple leaf % control / Apple leaf scab severity: bark spray
Source text: (§1) Applicant conducted the following study to determine the effect of a 3-(difluoromethyl)-1-methyl-N-[(3R)-1,1,3-trimethyl-2,3-dihydroinden-4-yl]pyrazole-4-carboxamide bark spray application on common fungal infections in apple and pear trees. Applications were made in late February with a CO2 charged, single-tip hand sprayer. Treatments were applied as a spray to the lower 3 to 4 feet of the tree trunks all the way around the tree. The tree trunks were sprayed until they were wet. If the treatments included a surfactant (see tables), then the treatments included a surfactant at a rate of 3 fl oz/gallon of the spray mix. The apple trees were at bed swell stage. The apple tree trunks were about 5 to 8 inches in diameter. The pear trees were at mid-petal fall with some green leaves emerging. The pear tree trunks were about 10 to 12 inches in diameter. The following rates in grams per active/cm diameter tree trunk are based on an average trunk diameter. A large amount of apple scab naturally developed during this growing season in this location. The effects of the treatments on apple leaf phytotoxicity, apple leaf apple scab incidence, apple leaf scab severity, and apple leaf percent control were observed 113 and 169 days after treatment (“DAT”). The results of this study are below in Tables 1 and 2.

[2] = test system: apple trees; assay: Example 1: apple leaf phytotoxicity after bark spray; assay type: in vivo; parameters: scale not given here
Source text: as §1

[3] = test system: apple scab caused by Venturia inaequalis; assay: Example 2: apple tree trunk treatment, leaf and fruit pest incidence and severity; assay type: in vivo
Source text: (§2) In this study, the 3-(difluoromethyl)-1-methyl-N-[(3R)-1,1,3-trimethyl-2,3-dihydroinden-4-yl]pyrazole-4-carboxamide treatment was applied at the time of bud swell in mid March on apple tree trunks (treatment 5). The result of this treatment was compared to metconazole treatments applied when the apple trees were dormant (treatments 2 and 3), at the time of bud swell (treatment 4), and a foliar spray applied after petal fall (treatment 6). The control treatment (treatment 1) was applied during bud swell, as well. Four trees were subjected to each treatment.

[4] = test system: apple trees; assay: Example 2: phytotoxicity on apple trees; assay type: in vivo
Source text: as §2

[5] = test system: Fabraea leaf spot; assay: Example 1: bark spray on pear trees, Fabraea leaf spot control; assay type: in vivo; conditions: bark spray at mid-petal fall, at this rate and time of development
Source text: as §1

[6] = test system: Alternaria leaf spot; assay: Example 1: bark spray on pear trees, Alternaria leaf spot control; assay type: in vivo; conditions: bark spray at mid-petal fall, at this rate and time of development
Source text: as §1

[7] = Water solubility; assay type: physicochemical
[8] = test system: apple scab; conditions: background statement, cited from earlier work
[9] = 113 DAT, 0.86 grams active/cm trunk diameter + 2.3% V/V surfactant
[10] = 113 DAT, 1.72 grams active/cm trunk diameter + 2.3% V/V surfactant
[11] = 113 DAT, 3.44 grams active/cm trunk diameter + 2.3% V/V surfactant
[12] = 169 DAT, 0.86 grams active/cm trunk diameter + 2.3% V/V surfactant
[13] = 169 DAT, 1.7 grams active/cm trunk diameter + 2.3% V/V surfactant
[14] = 169 DAT, 3.4 grams active/cm trunk diameter + 2.3% V/V surfactant
[15] = first fruit pest, treatment 2, applied when apple trees dormant, 1.72 grams active/cm trunk diameter + 2.3% V/V surfactant
[16] = first fruit pest, treatment 3, applied when apple trees dormant, 1.72 grams active/cm trunk diameter + 2.3% V/V surfactant
[17] = first fruit pest, treatment 4, applied at the time of bud swell, 1.72 grams active/cm trunk diameter + 2.3% V/V surfactant
[18] = first fruit pest, treatment 6, foliar spray applied after petal fall, 4 oz pr/A, surfactant not given
[19] = treatment 2, applied when apple trees dormant, 1.72 grams active/cm trunk diameter + 2.3% V/V surfactant
[20] = treatment 3, applied when apple trees dormant, 1.72 grams active/cm trunk diameter + 2.3% V/V surfactant
[21] = treatment 4, applied at the time of bud swell, 1.72 grams active/cm trunk diameter + 2.3% V/V surfactant
[22] = treatment 6, foliar spray applied after petal fall, 4 oz pr/A, surfactant not given
[23] = 113 DAT, 1.16 grams active/cm trunk diameter + 2.3% V/V surfactant
[24] = 169 DAT, 1.16 grams active/cm trunk diameter + 2.3% V/V surfactant
[25] = 113 DAT, 0.003 grams active/cm trunk diameter + 2.3% V/V surfactant
[26] = 113 DAT, 0.03 grams active/cm trunk diameter + 2.3% V/V surfactant
[27] = 169 DAT, 0.003 grams active/cm trunk diameter + 2.3% V/V surfactant
[28] = 169 DAT, 0.03 grams active/cm trunk diameter + 2.3% V/V surfactant
[29] = first fruit pest, treatment 5, applied at the time of bud swell in mid March on apple tree trunks, 0.003 grams active/cm trunk diameter + 2.3% V/V surfactant
[30] = treatment 5, applied at the time of bud swell in mid March on apple tree trunks, 0.003 grams active/cm trunk diameter + 2.3% V/V surfactant

## CC1(C)CCC(Cc2ccc(Cl)cc2)C1(O)Cn1cncn1 (centres unmarked) [Metconazole + Surfactant, metconazole]
[1]; [9]
  Apple Leaf scab incidence: 12.5
  Apple leaf % control: 80%
  Apple leaf scab severity: 10
[1]; [10]
  Apple Leaf scab incidence: 18
  Apple leaf % control: 68.8%
  Apple leaf scab severity: 18.3
[1]; [11]
  Apple Leaf scab incidence: 11.25
  Apple leaf % control: 80%
  Apple leaf scab severity: 13.3
[1]; [12]
  Apple Leaf scab incidence: 18.88
  Apple leaf % control: 31.3%
  Apple leaf scab severity: 4.25
[1]; [13]
  Apple Leaf scab incidence: 15.5
  Apple leaf % control: 27.5%
  Apple leaf scab severity: 4.75
[1]; [14]
  Apple Leaf scab incidence: 7.25
  Apple leaf % control: 62.5%
  Apple leaf scab severity: 2.75
[2]; [9]
  Apple Leaf Phytotoxicity: 0
[2]; [10]
  Apple Leaf Phytotoxicity: 0
[2]; [11]
  Apple Leaf Phytotoxicity: 0
[2]; [12]
  Apple Leaf Phytotoxicity: 0
[2]; [13]
  Apple Leaf Phytotoxicity: 0
[2]; [14]
  Apple Leaf Phytotoxicity: 0
[3]; [15]
  Fruit pest incidence: 33.75
  Fruit pest severity: 2.25
[3]; [16]
  Fruit pest incidence: 6.67
  Fruit pest severity: 0.333
[3]; [17]
  Fruit pest incidence: 14.00
  Fruit pest severity: 1.125
[3]; [18]
  Fruit pest incidence: 2.75
  Fruit pest severity: 0.263
[3]; [19]
  Fruit pest incidence: 45.0
  Fruit pest severity: 3.0
  Leaf pest incidence: 1.875
  Leaf pest severity: 5.0
[3]; [20]
  Fruit pest incidence: 10.0
  Fruit pest severity: 0.5
  Leaf pest incidence: 1.000
  Leaf pest severity: 1.7
[3]; [21]
  Fruit pest incidence: 18.67
  Fruit pest severity: 1.5
  Leaf pest incidence: 0.140
  Leaf pest severity: 2.0
[3]; [22]
  Fruit pest incidence: 3.67
  Fruit pest severity: 0.350
  Leaf pest incidence: 0.125
  Leaf pest severity: 0.8
[4]; [19]
  Phytotoxicity: 0
[4]; [20]
  Phytotoxicity: 0
[4]; [21]
  Phytotoxicity: 0
[4]; [22]
  Phytotoxicity: 0

## CCCC1COC(Cn2cncn2)(c2ccc(Cl)cc2Cl)O1 (centres unmarked) [Propiconazole + Surfactant, propiconazole]
[1]; [23]
  Apple Leaf scab incidence: 18.78
  Apple leaf % control: 68.3%
  Apple leaf scab severity: 8.3
[1]; [24]
  Apple Leaf scab incidence: 13.38
  Apple leaf % control: 36.3%
  Apple leaf scab severity: 4.63
[2]; [23]
  Apple Leaf Phytotoxicity: 0
[2]; [24]
  Apple Leaf Phytotoxicity: 0

## C[C@@H]1CC(C)(C)c2cccc(NC(=O)c3cn(C)nc3C(F)F)c21 [3-(Difluoromethyl)-1-methyl-N-[(3R)-1,1,3-trimethyl-2,3-dihydroinden-4-yl]pyrazole-4-carboxamide]
[1]; [25]
  Apple Leaf scab incidence: 20
  Apple leaf % control: 88.3%
  Apple leaf scab severity: 13.8
[1]; [26]
  Apple Leaf scab incidence: 23
  Apple leaf % control: 80%
  Apple leaf scab severity: 16.3
[1]; [27]
  Apple Leaf scab incidence: 13.75
  Apple leaf % control: 43.8%
  Apple leaf scab severity: 7
[1]; [28]
  Apple Leaf scab incidence: 13.75
  Apple leaf % control: 46.3%
  Apple leaf scab severity: 4.5
[1]; combined with a surfactant and applied as a bark spray, as compared to metconazole and propiconazole
  activity against apple scab caused by Venturia inaequalis: excellent activity
[2]; [25]
  Apple Leaf Phytotoxicity: 0
[2]; [26]
  Apple Leaf Phytotoxicity: 0
[2]; [27]
  Apple Leaf Phytotoxicity: 0
[2]; [28]
  Apple Leaf Phytotoxicity: 0
[5]
  control of Fabraea leaf spot: failed to provide adequate control
[6]
  control of Alternaria leaf spot: failed to provide adequate control
[3]; [29]
  Fruit pest incidence: 10.25
  Fruit pest severity: 0.638
[3]; [30]
  Fruit pest incidence: 0.33
  Fruit pest severity: 0.183
  Leaf pest incidence: 0.25
  Leaf pest severity: 0.3
[4]; [30]
  Phytotoxicity: 0
[7]
  water solubility: low water solubility

## O=C1C2CC=CCC2C(=O)N1SC(Cl)(Cl)Cl (centres unmarked) [Captan, N-trichtoromethylthiocyclohexene-1,2-dicarboximide]
[8]
  systemic control activity: no systemic control activity
[8]; contact fungicide
  effectiveness against apple scab: effective against apple scab
